Columns and labels:
[1] = tested on: Human Peripheral Blood Mononuclear Cell (hPBMC); assay: Cytokine induction assay (BD Cytometric Bead Array) in hPBMC culture supernatants; assay type: cell-based; details: human PBMCs (n=3) stimulated 48 hours, CBA assay
Excerpt: The BD™ Cytometric Bead Array (CBA) Human inflammatory Cytokines Kit was used to quantitatively measure Tumor Necrosis Factor (TNF a), Interleukin-6 (IL-6) and Interleukin-1β (IL-1β) protein levels in single samples of Human Peripheral Blood Mononuclear Cell (hPBMC) culture supernatants pretreated with either the adjuvant PHAD or MAV4. The detection reagent provided in the kit was a mixture of phycoerythrin (PE)-conjugated antibodies, which provides a fluorescent signal in proportion to the amount of bound cytokine.
When the capture beads and detector reagent are incubated with an unknown sample containing recognized cytokines, sandwich complexes (capture bead+cytokine+detection reagent) are formed. These complexes are measured using flow cytometry.
To perform the assay lyophilized human inflammatory cytokine standards were reconstituted with assay diluent and serially diluted (standard curve for each protein covers a defined set of concentrations from […]) and test samples were diluted to the desired dilution factor using the assay diluent before mixing all assay tubes with capture beads (50 μl) and PE detection reagent (50 μl). […] Samples were then analyzed by flow cytometry and data was analyzed using FCAP Array Software. […]

[2] = Reverse phase HPLC analysis of adjuvant co-melted with 1-monopalmitoyl glycerol (thermostability); assay type: physicochemical
Procedure: Reverse phase HPLC analysis of PHAD and MAV4 co-melted with 1-monopalmitoyl glycerol at the inverted melt method temperature (Example 4) was used to evaluate the thermostability or thermolability of the two adjuvants under these thermal conditions. In the procedure, the samples were prepared as follows, in isopropanol (IPA) using 1.5 ml autoinjection vials as duplicates: PHAD: 20 μg PHAD+180 μg 1-monopalmitoyl glycerol (1:9 wt ratio); MAV4: 10 μg+90 μg 1-monopalmitoyl glycerol (1:9 wt ratio).
The samples were lyophilized overnight. The dried samples were melted for six minutes at 120° C. and 140° C. Each sample was then dissolved in IPA to give a concentration of 0.1 μg/μl for an HPLC load of 20 μL.

phosphorylated hexaacyl disaccharide [PHAD]
secretion of TNF-α, IL-1β and IL-6 [1]: induced dose-dependent immune responses | Area Under the Curve (AUC) of the HPLC peak ([2]; co-melted with 1-monopalmitoyl glycerol (1:9 wt), melted six minutes at 140° C. versus 120° C.): significant decrease | minor peaks (degradation) in the chromatogram ([2]; co-melted with 1-monopalmitoyl glycerol, melted at 120° C. and 140° C.): No minor peaks were observed

Reference: US10105440B2, “Synthetic derivatives of MPL and uses thereof” (VARIATION BIOTECHNOLOGIES INC., priority 2011, dated 2018)
